Reference: patent US20040122089A1, “Novel eicosanoid analgesics” (priority 2001, published 2004)
Where two headings read alike, the source gives them in different places.

What was measured:
[1] = target: human VR1 receptor (Homo sapiens, UniProt Q8NER1); assay: Cytosolic calcium concentration assay in HEK-hVR1 cells (Example 3); conditions: for Emax: read-out: hVR1 efficacy (maximal effect, in parentheses)
[2] = target: T1, CB1 receptors (Rattus norvegicus, UniProt P20272); assay: Agonist-stimulated [35S]GTPγS binding, rat hippocampal membranes; conditions: for Emax: read-out: GTPγS binding (Emax)
T1 sequence (P20272 whole entry): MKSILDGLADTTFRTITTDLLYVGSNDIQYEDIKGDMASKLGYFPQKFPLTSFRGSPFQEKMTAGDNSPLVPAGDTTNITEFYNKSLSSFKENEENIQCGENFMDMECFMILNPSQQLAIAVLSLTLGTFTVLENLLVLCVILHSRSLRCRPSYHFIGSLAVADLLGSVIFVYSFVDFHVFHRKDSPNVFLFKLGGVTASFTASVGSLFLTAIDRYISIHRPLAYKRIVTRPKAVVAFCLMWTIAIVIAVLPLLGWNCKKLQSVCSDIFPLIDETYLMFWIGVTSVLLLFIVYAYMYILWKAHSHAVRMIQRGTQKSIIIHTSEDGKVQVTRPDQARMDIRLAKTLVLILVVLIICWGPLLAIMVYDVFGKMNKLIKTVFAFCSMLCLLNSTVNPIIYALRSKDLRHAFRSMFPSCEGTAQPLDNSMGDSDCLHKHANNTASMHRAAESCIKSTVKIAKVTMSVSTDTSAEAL

[3] = system: mice; assay: Mouse tetrad of behavioral tests, i.v. (Example 3); type: in vivo; conditions: for Average ED50 / R.I. ED50 / Rectal temp. ED50 / Spontan. activity ED50 / Tail Flick ED50: i.v.; for R.I. ED50 / Rectal temp. ED50 / Spontan. activity ED50 / Tail Flick ED50: mean (range)
Experimental: (§1) The analogs were administered to mice by tail-vein injection and evaluated for their ability to produce hypomotility, hypothermia, and antinociception. These pharmacological measures were determined in the same mouse at a time when maximal activity was present. […] A 10-sec maximum latency was used. Antinociception was expressed as % MPE as described below.
Data Analysis—For production of hypomotility and hypothermia, the data were expressed as a percentage of control activity and change in temperature, respectively. Antinociception was calculated according to the following equation.
% MPE=−((test latency-control latency)/(10s-control latency))×100
At least six animals were treated with each dose-response relationships could be determined for each analog. ED50 values were determined from least-squares unweighted linear regression analysis of log dose-response plots.
The ED50 (milligrams per kilogram, i.v.) does for inhibition of sector crossings (spontaneous activity) in an open field, antinociception (delay in seconds in the tail-flick response), decrease of rectal temperature in degrees Celsius, and induction of time spent in immobility on a ring are shown. Data are means (and ranges) of N>six animals.

[4] = target: T2, FAAH (Rattus norvegicus, UniProt P97612); assay: Fatty acid amide hydrolase assay, rat brain membranes; type: biochemical
T2 construct: membranes prepared from frozen brains of CD rats (Charles River, France); from tissue; host or cells: brain membranes of CD rats
T2 sequence (P97612 1-579): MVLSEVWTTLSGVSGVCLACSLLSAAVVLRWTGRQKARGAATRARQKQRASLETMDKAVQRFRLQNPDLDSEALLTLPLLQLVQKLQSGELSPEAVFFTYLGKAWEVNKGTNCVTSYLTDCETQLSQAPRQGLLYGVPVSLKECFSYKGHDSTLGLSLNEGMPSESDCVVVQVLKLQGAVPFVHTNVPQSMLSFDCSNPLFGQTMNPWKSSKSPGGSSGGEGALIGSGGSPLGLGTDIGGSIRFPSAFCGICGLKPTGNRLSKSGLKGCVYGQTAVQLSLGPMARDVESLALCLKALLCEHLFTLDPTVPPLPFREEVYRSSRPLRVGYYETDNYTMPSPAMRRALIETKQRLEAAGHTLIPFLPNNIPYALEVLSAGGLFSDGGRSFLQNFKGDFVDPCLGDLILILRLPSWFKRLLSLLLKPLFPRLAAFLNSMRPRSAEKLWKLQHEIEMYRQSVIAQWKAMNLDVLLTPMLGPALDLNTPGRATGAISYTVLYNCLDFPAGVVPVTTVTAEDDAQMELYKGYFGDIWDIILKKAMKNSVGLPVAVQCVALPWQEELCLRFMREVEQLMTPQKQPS
Experimental: Fatty acid amide hydrolase assay—The effect of compounds on the enzymatic hydrolysis of AEA was studied using membranes prepared from frozen brains of CD rats (Charles River, France), incubated with the test compounds and [^14C] AEA (9 μM) in 50 mM Tris-HCl, pH 9, for 30 min at 37° C. [^14C] Ethanolamine produced from [^14C] AEA hydrolysis was measured by scintillation counting of the aqueous phase after extraction of the incubation mixture with 2 volumes of CHCl3/CH3OH 2:1 (by vol.).
(§2) CP55940 from whole rat brain membranes.

[5] = target: T1, CB1 receptors; assay: CB1 receptor binding, [3H]CP55940, whole rat brain membranes (Example 3)
[6] = system: AMT; type: cell-based, rat; conditions: [14C]AEA uptake, RBL-2H3 cells; read-out: AEA transport (IC50)
Experimental: AEA. Cells were incubated with [^14C] AEA for 5 min at 37° C., in the presence or absence of varying concentrations of the inhibitors. Residual [^14C] AEA in the incubation media after extraction with CHCl3/CH3OH 2:1 (by vol.), determined by scintillation counting of the lyophilized organic phase, was used as a measure of the AEA that was taken up by cells.
as §2

[7] = system: mice; assay: SR141716A pre-treatment before compounds in spontaneous activity and tail-flick tests in mice; type: in vivo, mouse; conditions: for effect of SR141716A pre-treatment on the compound's effects in the tetrad tests: SR141716A 3 mg/kg i.v., 10 min pre-treatment; for Spontaneous Activity (Beam Interuptions), SR14176a + comp / Tail-Flick Latency (% MPE), SR14176a + comp: SR14176A 3 mg/kg i.v. 10 min before
Experimental: as §1
Data are means ±S.E. of n≧six animals.

human VR1 receptor, sequence (Q8NER1 whole entry): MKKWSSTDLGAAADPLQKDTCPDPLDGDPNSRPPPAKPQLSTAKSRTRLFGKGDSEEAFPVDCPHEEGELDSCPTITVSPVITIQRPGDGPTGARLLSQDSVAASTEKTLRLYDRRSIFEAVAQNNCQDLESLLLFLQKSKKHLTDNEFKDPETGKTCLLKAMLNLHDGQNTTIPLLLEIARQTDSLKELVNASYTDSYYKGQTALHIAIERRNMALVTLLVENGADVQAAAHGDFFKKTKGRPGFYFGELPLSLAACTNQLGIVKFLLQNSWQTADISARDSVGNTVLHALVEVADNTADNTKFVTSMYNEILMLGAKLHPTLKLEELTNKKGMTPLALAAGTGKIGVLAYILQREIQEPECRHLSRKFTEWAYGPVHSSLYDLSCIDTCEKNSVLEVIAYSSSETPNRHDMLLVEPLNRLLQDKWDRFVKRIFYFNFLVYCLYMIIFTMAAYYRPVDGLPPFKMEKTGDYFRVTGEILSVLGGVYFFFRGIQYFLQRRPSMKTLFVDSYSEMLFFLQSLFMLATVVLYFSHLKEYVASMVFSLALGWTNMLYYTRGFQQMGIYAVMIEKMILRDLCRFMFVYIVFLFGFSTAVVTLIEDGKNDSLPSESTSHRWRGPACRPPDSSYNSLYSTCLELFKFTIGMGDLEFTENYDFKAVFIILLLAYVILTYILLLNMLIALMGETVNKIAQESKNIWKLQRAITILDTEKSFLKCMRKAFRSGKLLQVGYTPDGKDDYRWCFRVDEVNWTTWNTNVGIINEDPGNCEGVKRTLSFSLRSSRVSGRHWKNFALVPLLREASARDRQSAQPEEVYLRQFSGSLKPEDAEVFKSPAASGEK

Structure (SMILES) | EC50 [1] | Emax [1] | Emax [2] | Average ED50 [3] | R.I. ED50 [3] | Rectal temp. ED50 [3] | Spontan. activity ED50 [3] | Tail Flick ED50 [3] | IC50 [4] | Ki ([5]; read-out: CB1 affinity Ki) | IC50 [6] | also measured
CCCCC/C=C\C/C=C\C/C=C\C/C=C\CCCC(=O)NCc1cccc(OC)c1 [Compound O-1986] | 0.063 ± 0.0101 µM | 68% | 0% | 5.80 milligrams per kilogram | 6.13 (4.79-7.83) milligrams per kilogram | 6.15 (3.22-11.73) milligrams per kilogram | 4.74 (3.17-7.09) milligrams per kilogram | 6.15 (4.63-8.16) milligrams per kilogram | 18.2 ± 2.8 µM | 0.484 ± 0.017 µM | 27.3 ± 3.5 µM | fold less potent than arvanil at hVR1 [1]: more than 100 fold
CCCCC/C=C\C/C=C\C/C=C\C/C=C\CCCNC(=O)NCc1ccc(O)c(OC)c1 [Compound O-1987] | 0.0007 ± 0.0002 µM | 80.6% | 0% | 0.09 milligrams per kilogram | 0.09 (0.06-0.12) milligrams per kilogram | 0.08 (0.03-0.20) milligrams per kilogram | 0.06 (0.04-0.08) milligrams per kilogram | 0.12 (0.08-0.17) milligrams per kilogram | 2 ± 0.4 µM | 1.72 ± 0.2 µM | 19.3 ± 3.3 µM | 
CCCCC/C=C\C/C=C\C/C=C\C/C=C\CCCC(=O)N(C)Cc1ccc(O)c(OC)c1 [Compound O-1988] | 0.025 ± 0.0039 µM | 69.1% | 0% | 5.98 milligrams per kilogram | 4.08 (2.99-5.56) milligrams per kilogram | 8.74 (5.61-13.60) milligrams per kilogram | 3.11 (1.54-6.29) milligrams per kilogram | 7.98 (5.17-12.34) milligrams per kilogram | > 50 µM | 2.83 ± 0.175 µM | 10 ± 2.1 µM | effect of SR141716A pre-treatment on the compound's effects in the tetrad tests [7]: not affected; Spontaneous Activity (Beam Interuptions), vehicle + compound ([7]; dose 3 mg/kg i.v.): 766 ± 157 Beam Interuptions; Tail-Flick Latency (% MPE), vehicle + compound ([7]; dose 3 mg/kg i.v.): 54 ± 9 % MPE; Spontaneous Activity (Beam Interuptions), SR14176a + comp ([7]; dose 3 mg/kg i.v.): 689 ± 68 Beam Interuptions; Tail-Flick Latency (% MPE), SR14176a + comp ([7]; dose 3 mg/kg i.v.): 67 ± 15 % MPE; Spontaneous Activity (Beam Interuptions), vehicle + compound ([7]; dose 10 mg/kg i.v.): 179 ± 34 Beam Interuptions; Tail-Flick Latency (% MPE), vehicle + compound ([7]; dose 10 mg/kg i.v.): 100 % MPE; Spontaneous Activity (Beam Interuptions), SR14176a + comp ([7]; dose 10 mg/kg i.v.): 117 ± 17 Beam Interuptions; Tail-Flick Latency (% MPE), SR14176a + comp ([7]; dose 10 mg/kg i.v.): 100 % MPE
CCCCC/C=C\C/C=C\C/C=C\C/C=C\CCCC(=O)NCc1ccc(O)c(Cl)c1 [Compound O-2094] | 0.01 µM | 63.5% | 15% | 1.68 milligrams per kilogram | 1.93 (1.56-2.39) milligrams per kilogram | 3.77 (1.21-11.76) milligrams per kilogram | 0.52 (0.38-0.71) milligrams per kilogram | 0.49 (0.35-0.67) milligrams per kilogram | 4.5 ± 0.7 µM | 0.275 ± 0.016 µM | 19 ± 2.1 µM | EC50 [2]: 0.131 µM; activity in the GTPγS binding assay [2]: low efficacy partial agonist; ED50 ([3]; Mus musculus, iv, read-out: ED50 values, range over the four parameters of the mouse 'tetrad'): 0.49 to 3.77 mg/kg; Ki ([5]; read-out: CB1 affinity Ki, listed as 0-2094): 0.274 ± 0.019 µM; effect of SR141716A pre-treatment on the compound's effects in the tetrad tests [7]: not affected; effect of SR141716A pre-treatment on the compound's effects in the tetrad tests ([7]; listed as 0-2094): No inhibitory effect; Spontaneous Activity (Beam Interuptions), vehicle + compound ([7]; dose 1 mg/kg i.v.): 83 ± 17 Beam Interuptions; Tail-Flick Latency (% MPE), vehicle + compound ([7]; dose 1 mg/kg i.v.): 94 ± 5 % MPE; Spontaneous Activity (Beam Interuptions), SR14176a + comp ([7]; dose 1 mg/kg i.v.): 116 ± 21 Beam Interuptions; Tail-Flick Latency (% MPE), SR14176a + comp ([7]; dose 1 mg/kg i.v.): 100 % MPE; Spontaneous Activity (Beam Interuptions), vehicle + compound ([7]; dose 3 mg/kg i.v.): 118 ± 16 Beam Interuptions; Tail-Flick Latency (% MPE), vehicle + compound ([7]; dose 3 mg/kg i.v.): 100 % MPE; Spontaneous Activity (Beam Interuptions), SR14176a + comp ([7]; dose 3 mg/kg i.v.): 52 ± 19 Beam Interuptions; Tail-Flick Latency (% MPE), SR14176a + comp ([7]; dose 3 mg/kg i.v.): 96 ± 4 % MPE
CCCCC/C=C\C/C=C\C/C=C\C/C=C\CCCNC(=S)NCc1ccc(O)c(OC)c1 [Compound O-2095] | 0.0004 ± 0.0001 µM | 72.1% | 0% | 0.05 milligrams per kilogram | 0.08 (0.05-0.12) milligrams per kilogram | 0.03 (0.02-0.07) milligrams per kilogram | 0.02 (0.02-0.03) milligrams per kilogram | 0.08 (0.06-0.10) milligrams per kilogram | > 50 µM | 8.63 ± 0.13 µM | 7.5 ± 1.8 µM | 
CCCCC/C=C\C/C=C\C/C=C\C/C=C\CCCNC(=S)NCc1ccc(O)c(Cl)c1 [Compound O-2109] | 0.004 ± 0.0011 µM |  | 0% | 0.15 milligrams per kilogram | 0.15 (0.10-0.23) milligrams per kilogram | 0.33 (0.02-5.06) milligrams per kilogram | 0.02 (0.02-0.03) milligrams per kilogram | 0.09 (0.06-0.12) milligrams per kilogram | > 50 µM | 1.8 ± 0.204 µM | 3.8 ± 0.7 µM | fold less potent than O-2095 at VR1 [1]: 10 fold
CCCCC/C=C\C/C=C\C/C=C\C/C=C\CCCC(=O)NCc1ccc(OC(=O)CCCN2CCOCC2)c(OC)c1 [Compound O-2142] | 0.0006 ± 0.0002 µM | 86.6% | 0% | 0.17 milligrams per kilogram | 0.17 (0.13-0.22) milligrams per kilogram | 0.11 (0.07-0.17) milligrams per kilogram | 0.20 (0.16-0.24) milligrams per kilogram | 0.19 (0.15-0.25) milligrams per kilogram | 9.1 ± 1.7 µM | 0.483 ± 0.063 µM | 30 ± 4.3 µM | activity in the GTPγS binding assay [2]: inactive
